Measured values taken from publication doi:10.1101/041947v2 (biorxiv, 2016).

System: A549
Experiment: cells
Settings: Homo sapiens, A549, read-out: IC50 nM

IC50: 4.2 nM
SMILES: CC[C@]1(O)C[C@@H]2CN(CCc3c([nH]c4ccccc34)[C@@](C(=O)OC)(c3cc4c(cc3OC)N(C)[C@H]3[C@@](O)(C(=O)OC)[C@H](OC(C)=O)[C@]5(CC)C=CCN6CC[C@]43[C@@H]65)C2)C1 [Vinblastine]
